Key:
Experiment in all cases: standardised AUC of viability dose-response curve (72 h) (fraction (0-1)); higher = less growth inhibition (more resistant)
A204 = test system: A204
Procedure, shortened: (§1)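 Viability of sarcoma cell lines was read with ATPLite after 72 h of triplicate treatment in 384-well plates with 2.5 µl of compound from a compound-plate series of 10 mM to 0.0002 mM. Viability was scaled 1 (full) to 0 (none) and fitted with a four-parameter log-logistic model for each drug and cell line. The reported standardised area under the dose-response curve in log-dose space comes from a modified drexplorer computeAUC, where 1 is no response and 0 is full response.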

G401 = test system: G401
Procedure, shortened: as §1

HS729 = test system: HS729
Procedure, shortened: as §1

HT1080 = test system: HT1080
Procedure, shortened: as §1

KHOS-240S = test system: KHOS-240S
Procedure, shortened: as §1

KHOS-NP = test system: KHOS-NP
Procedure, shortened: as §1

MES-SA = test system: MES-SA
Procedure, shortened: as §1

RD-ES = test system: RD-ES
Procedure, shortened: as §1

RD = test system: RD
Procedure, shortened: as §1

SK-ES-1 = test system: SK-ES-1
Procedure, shortened: as §1

SK-LMS-1 = test system: SK-LMS-1
Procedure, shortened: as §1

SW1353 = test system: SW1353
Procedure, shortened: as §1

SW684 = test system: SW684
Procedure, shortened: as §1

SW872 = test system: SW872
Procedure, shortened: as §1

SW982 = test system: SW982
Procedure, shortened: as §1

SYO-1 = test system: SYO-1
Procedure, shortened: as §1

VA-ES-BJ = test system: VA-ES-BJ
Procedure, shortened: as §1

Structure (SMILES) | standardised AUC (A204) | standardised AUC (G401) | standardised AUC (HS729) | standardised AUC (HT1080) | standardised AUC (KHOS-240S) | standardised AUC (KHOS-NP) | standardised AUC (MES-SA) | standardised AUC (RD-ES) | standardised AUC (RD) | standardised AUC (SK-ES-1) | standardised AUC (SK-LMS-1) | standardised AUC (SW1353) | standardised AUC (SW684) | standardised AUC (SW872) | standardised AUC (SW982) | standardised AUC (SYO-1) | standardised AUC (VA-ES-BJ)
Nc1cc(C(F)(F)F)c(-c2cc(N3CCOCC3)nc(N3CCOCC3)n2)cn1 [BUPARLISIB] | 0.754 | 0.823 | 0.815 | 0.862 | 0.829 | 0.887 | 0.753 | 0.769 | 0.785 | 0.742 | 0.75 | 0.85 | 0.823 | 0.809 | 0.79 | 0.791 | 0.762
C=CC(=O)N1CCC[C@@H](n2nc(-c3ccc(Oc4ccccc4)cc3)c3c(N)ncnc32)C1 [IBRUTINIB] | 0.967 | 0.973 | 0.941 | 1 | 0.954 | 0.966 | 0.948 | 0.994 | 0.997 | 0.991 | 0.978 | 0.85 | 0.997 | 0.934 | 0.992 | 0.892 | 0.995
CC(=O)Nc1cccc(-n2c(=O)n(C3CC3)c(=O)c3c(Nc4ccc(I)cc4F)n(C)c(=O)c(C)c32)c1 [TRAMETINIB] | 0.782 | 0.651 | 0.761 | 0.577 | 0.783 | 0.523 | 0.827 | 0.989 | 0.65 | 0.958 | 0.533 | 0.709 | 0.714 | 0.619 | 0.897 | 0.825 | 0.756
COc1cc2c(Oc3ccc4[nH]c(C)cc4c3F)ncnc2cc1OCCCN1CCCC1 [CEDIRANIB] | 0.622 | 0.797 | 0.929 | 0.996 | 0.939 | 0.98 | 0.91 | 0.987 | 0.966 | 0.917 | 0.966 | 0.922 | 0.995 | 0.986 | 0.959 | 0.743 | 1
Cc1ccc(NC(=O)c2ccc(CN3CCN(C)CC3)cc2)cc1Nc1nc(-c2cccnc2)cs1 [MASITINIB] | 0.702 | 0.848 | 0.884 | 0.902 | 0.853 | 0.89 | 0.869 | 0.871 | 0.902 | 0.881 | 0.907 | 0.857 | 0.873 | 0.874 | 0.876 | 0.749 | 0.897
COc1cccc2c1C(=O)c1c(O)c3c(c(O)c1C2=O)C[C@@](O)(C(=O)CO)C[C@@H]3O[C@H]1C[C@H](N)[C@H](O)[C@H](C)O1 [DOXORUBICIN] | 0.532 | 0.577 | 0.638 | 0.6 | 0.588 | 0.694 | 0.496 | 0.472 | 0.609 | 0.439 | 0.672 | 0.669 | 0.796 | 0.655 | 0.537 | 0.47 | 0.574
C=CC(=O)Nc1cccc(Oc2nc(Nc3ccc(N4CCN(C)CC4)cc3)nc3ccsc23)c1 [OLMUTINIB] | 0.98 | 0.964 | 0.931 | 0.951 | 0.954 | 0.993 | 0.945 | 0.982 | 0.951 | 0.936 | 0.927 | 0.918 | 0.899 | 0.964 | 0.907 | 0.923 | 0.939
Cc1nc(-c2cn3c(n2)-c2ccc(-c4cnn(C(C)(C)C(N)=O)c4)cc2OCC3)n(C(C)C)n1 [TASELISIB] | 0.675 | 0.744 | 0.77 | 0.989 | 0.843 | 0.975 | 0.664 | 0.675 | 0.727 | 0.68 | 0.771 | 0.855 | 0.702 | 0.76 | 0.826 | 0.84 | 0.727
CCN1CCN(Cc2ccc(Nc3ncc(F)c(-c4cc(F)c5nc(C)n(C(C)C)c5c4)n3)nc2)CC1 [ABEMACICLIB] | 0.746 | 0.855 | 0.966 | 0.993 | 0.856 | 0.95 | 0.805 | 0.734 | 0.97 | 0.631 | 0.938 | 0.88 | 0.901 | 0.872 | 0.734 | 0.715 | 0.804
CO[C@H]1C[C@@H]2CC[C@@H](C)[C@@](O)(O2)C(=O)C(=O)N2CCCC[C@H]2C(=O)O[C@H]([C@H](C)C[C@@H]2CC[C@@H](OP(C)(C)=O)[C@H](OC)C2)CC(=O)[C@H](C)/C=C(\C)[C@@H](O)[C@@H](OC)C(=O)[C@H](C)C[C@H](C)/C=C/C=C/C=C/1C [RIDAFOROLIMUS] | 0.643 | 0.832 | 0.937 | 0.925 | 0.867 | 0.97 | 0.542 | 0.764 | 0.748 | 0.682 | 0.645 | 0.796 | 0.798 | 0.686 | 0.729 | 0.874 | 0.587
CN1CCN(c2ccc3nc(-c4c(N)c5c(F)cccc5[nH]c4=O)[nH]c3c2)CC1 [DOVITINIB] | 0.748 | 0.833 | 0.821 | 0.906 | 0.81 | 0.917 | 0.81 | 0.82 | 0.904 | 0.749 | 0.904 | 0.86 | 0.902 | 0.823 | 0.792 | 0.717 | 0.865
CN1CCC(COc2cnc(-c3cccc(Cn4nc(-c5cccc(C#N)c5)ccc4=O)c3)nc2)CC1 [TEPOTINIB] | 0.985 | 0.978 | 0.928 | 0.972 | 0.963 | 0.954 | 0.98 | 0.979 | 0.998 | 0.97 | 0.732 | 0.987 | 0.983 | 0.972 | 0.985 | 0.945 | 0.898
C=CC(=O)N1CCC([C@@H]2CCNc3c(C(N)=O)c(-c4ccc(Oc5ccccc5)cc4)nn32)CC1 [ZANUBRUTINIB] | 0.957 | 0.977 | 0.964 | 0.987 | 0.976 | 1 | 0.981 | 0.974 | 0.966 | 0.977 | 1 | 0.934 | 0.97 | 0.941 | 0.941 | 0.974 | 0.973
CN[C@@H]1C[C@H]2O[C@@](C)([C@@H]1OC)n1c3ccccc3c3c4c(c5c6ccccc6n2c5c31)C(=O)NC4 [STAUROSPORINE] | 0.309 | 0.331 | 0.409 | 0.313 | 0.284 | 0.369 | 0.435 | 0.435 | 0.343 | 0.398 | 0.376 | 0.294 | 0.427 | 0.337 | 0.25 | 0.288 | 0.346
